Results on 2 compounds are retold here after article PMC4014702, “Synthesis, In Vitro and In Vivo Evaluation of the N-ethoxycarbonylmorpholine Ester of Diclofenac as a Prodrug” (Pharmaceuticals, 2014).

One data set deals with stomach (mucosal damage). As to the kind of experiment: In vivo ulcerogenicity study in rats. The arrangement: species or system male Sprauge-Dawley rats. The conditions noted are these: for number of lesions / ulcer score: single equimolar dose (diclofenac sodium 100 mg/kg, prodrug 140 mg/kg); for number of lesions: average, for the prodrug punctiform lesions; for ulcer score: sacrificed after 17 h. How it is done: The ulceroginicity of diclofenac sodium and its prepared prodrug 2 were evaluated. Three groups (six animals each) of male Sprauge-Dawley rats (150–200 gm) were fasted for 8 h prior to administration of single equimolar doses of diclofenac sodium (100 mg/kg), its prodrug (140 mg/kg), or vehicle. Free access to food and water were provided throughout the experiment. […] The stomach of the rats was dissected out of the body, and stomach content was emptied and washed with saline. The stomach was then opened and wiped with a clean swap dipped in saline. The degree of mucosal damage was assessed using a 4× binocular magnifier. The severity of the damage was assessed according to a scoring system where the presence of <5 punctiforms with no ulcers was given the score of zero. A punctiform was defined as a lesion of less than 1 mm. If >5 punctiforms were present with no ulcer, a score of 1 was given. If 1–5 small ulcers (1–2 mm in diameter) were observed, a score of 2 was given. If >5 small ulcers or one large ulcer (>2 mm in diameter) was present, a score of […] was given. If >1 large ulcer was observed, a score of 4 was given. The scores were averaged and the mean score was tabulated as ulcerogenicity index for the drugs under investigation.

A short description of data set [1]: Hydrolysis kinetics in human plasma. It is filed as in vitro ADME. To be noted: 37 ± 0.3 °C. How it is done:
(§1) The HPLC analysis was performed using LaChrom Merck Hitachi system that consists of a D-7000 interface, L-7200 diode array detector, pump L-7150 and D-7000HSM software (Schaumburg, IL, USA). The UV detector was set at 280 nm wave length. The HPLC column was an Agela unisol-C18, 5 micron 4.6 × 150. Mobile phase was 80% methanol, 20% water. To each litre, 2 mL acetic acid were added. The mobile phase was pumped at flow rate 1.5 mL/min. The retention times were: 5.17 min 6.19 min and 7.15 min for 2-hydroxyethyldiclofenac, diclofenac sodium and the morpholine prodrug, respectively (Figure 2). The analytical method was fully validated.
The prodrug under investigations was incubated in human plasma using a shaking water bath, which was set at 37 ± 0.3 °C. An amount of 25 µL of 1.0 mg/mL stock solution of the prodrug under investigation was added to 5 mL of the incubated plasma. At appropriate time points, samples of 100 μL were withdrawn and deproteinized by adding equal volumes of acetonitrile. The formed mixture was mixed on a vortex then centrifuge at 2,500 rpm for 10 min. The clear supernatant was analyzed using the HPLC method.

Data set [2] is described as follows: Hydrolysis kinetics in aqueous buffer solution. To be noted: about 37 °C. It is filed as physicochemical. The method, then: as §1
The prodrug under investigation was incubated in 0.1 N HCl (pH 1.0) and phosphate buffer (pH 7.4). The formed solutions were kept in a shaking water bath at about 37 °C for eight h. At appropriate intervals, samples (100 µL) were analyzed using the HPLC method described earlier.

SMILES strings stand for the structures. Where a name gives a salt, the structure may show the parent alone.

For `O=C(O)Cc1ccccc1Nc1c(Cl)cccc1Cl` [Compound 1, 2-[(2,6-dichloro-phenyl])amino]benzeneacetic acid sodium salt], the “lesions larger than 2 mm” value in the data set on stomach (mucosal damage) (single dose diclofenac sodium 100 mg/kg, 17 h) is “six”. The number of lesions in the data set with stomach (mucosal damage) (17 h) was found to be 82. In addition, the ulcer score result with stomach (mucosal damage) is “four”.
On to `O=C(Cc1ccccc1Nc1c(Cl)cccc1Cl)OCCOC(=O)N1CCOCC1` [Compound 2], for which the number of lesions entry in the data set on stomach (mucosal damage) (17 h) is given as “less than five”. Also, the ulcer score entry with stomach (mucosal damage) was “zero”. Also, in data set [1], the half-life at 5 µg/mL came out at 0.35 h. Further, the figures for the half-life in data set [2] (pH 1 (0.1 N HCl)) and in data set [2] (pH 7.4 (phosphate buffer)) were 8 h and 47 h, respectively.

In general, half-life refers to the time in which the quantity being followed falls by half. High values mean slow decline, low ones rapid decline.
